This note sets out measurements from patent publication US20050096456A1, “Compounds comprising pseudo-amino acids” (priority 2002, published 2005).

The data set is described as follows: Solubility of the lyophilised peptide. Format: physicochemical. The procedure:
The crude peptide was desalted via gel filtration (Sephadex G10, 0.1% TFA in water) before purification by preparative C18 Vydac) high performance liquid chromatography (HPLC) using 0.1% trifluoroacetic acid and 0.1% trifluoroacetic acid/90% acetonitrile as gradient components. After lyophilisation, the peptide was a white amorphous powder, soluble to at least 10 mg/mL in both dimethylsulfoxide and water. Fast atom bombardment spectrometry gave a main peak at 2101 amu corresponding to the molecular ion of the peptide.

Like-named read-outs stand apart in the source and are kept apart here. Residues, ends and D or L forms follow the SMILES beside them. *: point of attachment. Myristoyl = CCCCCCCCCCCCCC(=O)*

What is called solubility is the dissolved amount per volume that the medium holds. On to `CCCCCCCCCCCCCC(=O)NCC(=O)N[C@@H](CO)C(=O)N[C@@H](CO)C(=O)N[C@@H](CCCCN)C(=O)N[C@@H](CO)C(=O)N1CCC[C@H]1C(=O)N[C@@H](CO)C(=O)N[C@@H](CCCCN)C(=O)N[C@@H](CCCCN)C(=O)N[C@@H](CC(=O)O)C(=O)N[C@@H](CC(=O)O)C(=O)N[C@@H](CCCCN)C(=O)N[C@@H](CCCCN)C(=O)N1CCC[C@H]1C(=O)NCC(=O)N[C@@H](CC(=O)O)C(=O)N[C@@H](CCCCNC(=O)[C@@H](N)CS)C(N)=O` [MSWP2278, Myristoyl-Gly-Ser-Ser-Lys-Ser-Pro-Ser-Lys-Lys-Asp-Asp-Lys-Lys-Pro-Gly-Asp-(E-amino-cysteinyl carboxamide)-Lys-NH2] (Myristoyl-GSSKSPSKKDDKKPGDK(Cys)-NH2), for which the solubility reads like this: (in dimethylsulfoxide, read-out: solubility in dimethylsulfoxide) at least 10000 µg/mL; (in water, read-out: solubility in water) at least 10000 µg/mL.
